Legend:
naïve T cells = experiment: Cytoskeleton rearrangement (actin polymerization), naïve T cells; assay type: cell-based, mice; details: naïve T cells pre-treated with CCL2 0.1 ng/ml, 15 seconds stimulation
Method: Cytoskeleton rearrangement—T cells were pre-incubated for 30 minutes in the presence or absence of CCL2 (0.1 ng/ml), and then stimulated with either CXCL12 (0.1 mg/ml PeproTech, Inc., Rocky Hill N.J.), SLC (CCL21, 0.4 mg/ml, PeproTech, Inc., Rocky Hill, N.J.), Rantes (0.1 mg/ml, R&D systems Minneapolis, Minn.), MIP-1β(0.1 mg/ml, R&D systems Minneapolis, Minn.) or Eotoxin (0.1 mg/ml R&D systems Minneapolis, Minn.) for 15 seconds. Cells were then immediately fixed with paraformaldehyde, permeabilized and their intracellular F-actin was stained with FITC-phalloidin (Sigma-Aldrich, St. Louis, Mo.), and then analyzed by flow cytometry to determine the state of their cytoskeleton, as previously described [Flaishon, L. F., et al., J. Biol. Chem. 276:46701 (2001)].

naive lymphocytes = experiment: Intravital microscopy of mouse subiliac LN: lymphocyte rolling and sticking in HEVs; assay type: in vivo, C57BL/6 mice
Method: Intravital microscopy of mouse subiliac LN—Mice were anesthetized by intraperitoneal injection of 1 mg/ml xylazine and 5 mg/ml ketamine. The right femoral artery was catheterized. The left subiliac LN was prepared for IVM as previously described [Carriere et al., Cancer Res. (2005) 65:11639-11648; M'Rini et al., J Exp Med. (2003) 198:1301-1312], and the mouse was then transferred to a customized intravital video microscopy setup (INM 100; Leica Microsystems SA, Rueil-Malmaison, France) equipped with water immersion objectives (HCX APO; Leica Microsystems SA, Rueil-Malmaison, France). Fluorescent events in the LN microcirculation were visualized and recorded by a silicon-intensified target camera (Hamamatsu Photonics, Massy, France) and stored on DVCAM video tapes (DSR-11 Sony, IEC-ASV, Toulouse, France).
For visualization of naive lymphocyte interactions with LN vascular endothelium, naïve lymphocytes obtained from single T and B cell suspensions of a control C57BL/6 pool of subiliac, axillary, brachial and mesenteric LNs were incubated in the presence or absence of CCL2 (R&D Systems, Lille, France; 1 ng/ml, 30 minutes, 37° C.), fluorescently labeled by calcein AM (Molecular Probes-Invitrogen, Cergy Pontoise, France; 0.25 microM, 5 min, 37° C.) and then injected into the right femoral artery. Cell behavior in LN venules was assessed as previously described [Carriere et al., supra; M'Rini et al., supra]. The rolling fraction was determined as the percentage of cells that rolled along the vascular lining in the total flux of cells per venule. The sticking fraction was determined as the percentage in rolling cells of cells firmly adherent for at least 10 seconds or 1 minute.

[1] = OVA sensitization and challenge mouse asthma model; assay type: in vivo, BALB/c mice; details: OVA-challenged mice
Method: Ovalbumin (OVA) sensitization, challenge and treatment with CCL2—OVA sensitization and challenge were effected following a previously described protocol [Flaishon, L., et al., J. Immunol: Cutting edge 168: 3707 (2002)], BALB/c mice (average: 9 mice/group) were sensitized for OVA by intraperitoneal injections with 100 μg of chicken egg ovalbumin (OVA; Sigma-Aldrich, St. Louis, Mo.) mixed with 2 mg of aluminum hydroxide (Pierce, Rockford, Ill.) in 300 μl PBS (control group mice were injected with PSB alone). Injections were given on day 0, 7, and 14. 15 days after initial sensitization, and following, animals were challenged daily for 5 days (days 15-19) by inhaling 4% OVA in PBS, administered by an ultrasonic nebulizer (DeVilbiss, Somersel, Pa.) for 20 minutes, while the control group was challenged with PBS alone.
One of the groups injected and challenged by OVA was additionally injected i.p. with 300 μl PBS from the first day of OVA inhalation (day 15), for 5 days 20 minutes before each inhalation, and another group was additionally injected with murine CCL2 (60 ng CCL2 per animal per day). PBS-treated control group was PBS challenged and PBS injected. On day 18, 2 hours following inhalation, mice were anesthetized by an i.p. injection of 0.2 ml Ketamine/xylazine, and airway hyper-responsiveness (AHR) was determined by calculating the enhanced respiratory pause (Penh), a function of the ratio of peak expiratory flow to peak inspiratory flow and a function of the timing of expiration, measured in a plethysmographic box during expiration. Delta Penh was calculated by subtracting control Penh measurements, before antigen challenge, from the Penh measurements after antigen challenge. […] On day 19 the mice were sacrificed 2 hours after the last inhalation.
Lung histology—Lungs from mice participating in the OVA sensitization and challenge assay were inflated with 1 ml of 10% formalin until distended. Samples for paraffin sectioning were immersed in 10% formalin and fixed for 48 hours. The tissues were then embedded in paraffin and 2-3 micrometer sections were prepared. […]

[2] = Adjuvant arthritis (AA) rat model; assay type: in vivo, Lewis rats; details: rats; CCL2 240 ng daily day 0 to day 5; scored from day 10; FIG. 9
Method: Adjuvant Arthritis (AA) induction, assessment and treatment with CCL2-—AA was induced as previously described [Kannan, Theor Biol Med Model. (2005) 2:17] using 1 mg per rat of heat-killed Mt strain H37Ra (Difco). Each experimental and control group included at least eight rats. The day of AA induction was designated as day 0 and disease severity was assessed by direct observation of all four limbs in each animal. An observer blind to the experimental procedure scored AA for clinical manifestation of disease. A relative score between 0 and 4 was assigned to each limb, based on the degree of joint inflammation, redness and deformity. The maximum possible score for an individual animal was 16 [Kannan, supra].
Immediately following AA induction, rats were divided into two groups that were injected daily (from day 0 to day 5) with low dose CCL2 (240 ng in 300 μl of PBS) or PBS as control. Starting from day 10 post induction, the disease was scored as described hereinabove.
Results were presented as the mean±SEM of the difference between the two values for all the animals in each group. Experiments were repeated at least three times and produced similar results.

**Q.** Which “inhibition of CXCL12-induced actin polymerization” value (naïve T cells; FIG. 2c) does the source give for “CCL2: mammalian (e.g., human) CCL2 protein, GenBank NM_002982 / NP_002973; murine CCL2 used in the asthma model” here?
**A.** The value was 40-50%.

**Q.** And the “inhibition of CCL21-induced actin polymerization” value (naïve T cells; FIG. 2d)?
**A.** Its value is 40-50%.

**Q.** And the “number of firmly bound lymphocytes in the PLN venular tree” value (naive lymphocytes; 30 minutes after injection of the fluorescent cells, FIGS. 5f-g)?
**A.** Its value is “striking reduction”.

**Q.** And the “L-selectin mediated rolling in HEVs (rolling fraction)” value (naive lymphocytes; lymphocytes pre-treated with CCL2 1 ng/ml 30 minutes, FIG. 5b)?
**A.** Its value is “did not significantly alter”.

**Q.** And the “sticking fraction 10 seconds” value (naive lymphocytes; lymphocytes pre-treated with CCL2 1 ng/ml 30 minutes, vs control, FIG. 5c)?
**A.** Its value is “comparable”.

**Q.** What about the “percentage of cells which remained adherent 1 minute after initial arrest” value (naive lymphocytes; lymphocytes pre-treated with CCL2 1 ng/ml 30 minutes, vs control, FIG. 5e) of the same substance?
**A.** Its value is “severe reduction”.

**Q.** What about the “percentage of cells which remained adherent 30 seconds after initial arrest” value (naive lymphocytes; lymphocytes pre-treated with CCL2 1 ng/ml 30 minutes, vs control, FIG. 5d) of the same substance?
**A.** Its value is “severe reduction”.

**Q.** And the “peribronchial and perivascular inflammatory infiltrate (inflammatory score 1-4)” value ([1]; CCL2 60 ng per day i.p., FIG. 8e)?
**A.** Its value is “significantly reduced”.

**Q.** What about the “histological changes in the lungs” value ([1]; CCL2 60 ng per day i.p., FIG. 8d) of the same substance?
**A.** The value was “barely detectable”.

**Q.** And the “airway responsiveness (delta Penh) to antigen challenge” value ([1]; murine CCL2 60 ng per animal per day i.p. for 5 days, FIG. 8a)?
**A.** Its value is “no airway hyperactivity was observed”.

**Q.** What about the “adjuvant arthritis disease score (max 16)” value [2] of the same substance?
**A.** The value was “significantly inhibited the onset of the disease”.
